The record followed here is PubChem BioAssay (NCI).

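Each compound was tested at five concentrations against cells in 96-well plates for 48 hours. TGI: total growth inhibition.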

Among the test systems are BT-549 breast; MALME-3M melanoma; MOLT-4 leukemia; SK-OV-3 ovarian; SW-620 colon; T-47D breast; UO-31 renal.
Holding throughout (assay): NCI tumour cell line growth inhibition, 48 h

In the case of `COC(=O)[C@@H]1C[C@@]2(C3C=CN(C(=O)C(F)(F)F)C=C3)c3ccccc3N(C(=O)C(F)(F)F)[C@H]2N1C(=O)OC`, the TGI with BT-549 breast, with MALME-3M melanoma, in the test on MOLT-4 leukemia, with SK-OV-3 ovarian, in the test on SW-620 colon and in the test with T-47D breast was > 100 µM in each case. Besides, in the test with UO-31 renal, the TGI was > 100 µM.

Consider `COc1cc2c(/C=C3/C(=O)N(c4ccccc4)c4ccccc43)c(Cl)[nH]c2cc1C`, for which the TGI is 7.56 µM in the test on BT-549 breast; 19 µM with MALME-3M melanoma; 9 µM in the test on MOLT-4 leukemia; 4.78 µM with SK-OV-3 ovarian; > 100 µM with SW-620 colon; 7.5 µM in the test on T-47D breast. The TGI in the test on UO-31 renal is > 26.9 µM.

On to `Cn1cnc2c(sc3nc4ccccc4n32)c1=N`, for which the TGI in the test on BT-549 breast, in the test with MALME-3M melanoma, with MOLT-4 leukemia, in the test on SK-OV-3 ovarian, in the test with SW-620 colon and in the test on T-47D breast was > 100 µM in each case. Moreover, the TGI in the test on UO-31 renal is > 100 µM.

As to `C[N+](C)(C)c1ncnc2c1ncn2C1CCCCO1` (stereo unspecified), the TGI in the test on BT-549 breast, in the test with MALME-3M melanoma, in the test on MOLT-4 leukemia, with SK-OV-3 ovarian, in the test on SW-620 colon and in the test on T-47D breast was > 100 µM throughout. Further, in the test with UO-31 renal, the TGI is > 100 µM.

As to `O=C(NCc1ccc(Cl)cc1)c1cc2sccc2nc1C(F)(F)F`, the TGI in the test on BT-549 breast, with MALME-3M melanoma, with MOLT-4 leukemia, in the test with SK-OV-3 ovarian, in the test with SW-620 colon and in the test on T-47D breast was > 100 µM each time. Besides, in the test on UO-31 renal, the TGI was > 100 µM.

For the compound `CC(=Nc1ccncc1)C(C)=Nc1ccncc1`, the TGI was 42.3 µM in the test with BT-549 breast; 37.3 µM with MALME-3M melanoma; 52.7 µM in the test on MOLT-4 leukemia; > 100 µM with SK-OV-3 ovarian; > 100 µM in the test with SW-620 colon; 77.7 µM in the test with T-47D breast. The TGI in the test with UO-31 renal worked out at 30.8 µM.

As to `Cc1c2c(OCCCCN3CCN(c4ncccn4)CC3)nn(C)c(=O)c2c(C)n1-c1ccccc1`, the TGI was found to be 34.5 µM with BT-549 breast; 35.7 µM in the test on MALME-3M melanoma; 84.6 µM with MOLT-4 leukemia; 35.4 µM with SK-OV-3 ovarian; 69.4 µM in the test with SW-620 colon; 45.8 µM with T-47D breast. This compound showed a TGI with UO-31 renal of 30.8 µM.

For the compound `NNc1nncn1N`, the TGI with BT-549 breast was > 100 µM; in the test on MALME-3M melanoma, > 85.4 µM; in the test on MOLT-4 leukemia, > 100 µM; in the test on SK-OV-3 ovarian it was > 100 µM; in the test with SW-620 colon, > 100 µM; in the test with T-47D breast, > 100 µM. For the same compound, in the test with UO-31 renal, the TGI was > 100 µM.

Take `Cn1c2ccccc2c2c3c(c4c5ccccc5n(C)c4c21)C(=O)c1ccccc1C3=O`: the TGI with BT-549 breast was 52.6 µM; with MALME-3M melanoma, 60 µM; with MOLT-4 leukemia, > 100 µM; in the test on SK-OV-3 ovarian, > 100 µM; in the test on SW-620 colon, > 100 µM; with T-47D breast it was > 100 µM. Also, the TGI with UO-31 renal was > 100 µM.

Take `C=CC[C@@]1(C(=O)OC)[C@H](Sc2ccccc2)C1(C)C`: the TGI in the test on BT-549 breast was > 100 µM; with MALME-3M melanoma, 84.9 µM; in the test with MOLT-4 leukemia it was 34.3 µM; in the test with SK-OV-3 ovarian it was > 100 µM; in the test with SW-620 colon it was > 100 µM; in the test with T-47D breast, > 100 µM. The TGI in the test on UO-31 renal is > 100 µM.

In the case of `C=C(C)C1CC=C(C)C2(C1)OCC(C)(C)C(C)O2` (stereo unspecified), the TGI with BT-549 breast is 36 µM; with MALME-3M melanoma, 29.5 µM; with MOLT-4 leukemia, 51.2 µM; in the test on SK-OV-3 ovarian, 53.7 µM; in the test with SW-620 colon it was 43.2 µM; in the test on T-47D breast, 55.4 µM. This compound had a TGI in the test on UO-31 renal of 40.8 µM.

On to `NNC(=S)N1CCN(C(=S)NN)CC1`, for which the TGI with BT-549 breast, in the test with MALME-3M melanoma, in the test with MOLT-4 leukemia, in the test with SK-OV-3 ovarian, in the test with SW-620 colon and in the test with T-47D breast was > 100 µM throughout. In the test on UO-31 renal, the TGI was > 100 µM.

Regarding `CCOC(=O)C(CS)NC(=O)CCCCCCCC(=O)NC(CS)C(=O)OCC` (stereo unspecified), the TGI in the test on BT-549 breast, in the test with MALME-3M melanoma, in the test with MOLT-4 leukemia, in the test on SK-OV-3 ovarian, in the test with SW-620 colon and in the test with T-47D breast was > 100 µM each time. Moreover, the TGI in the test on UO-31 renal was > 100 µM.

Regarding `C/C(O)=C/c1nc2ccc([N+](=O)[O-])cc2nc1/C=C(/C)O`, the TGI was > 100 µM in the test on BT-549 breast; 94.3 µM with MALME-3M melanoma; 72.2 µM in the test with MOLT-4 leukemia; > 100 µM in the test on SK-OV-3 ovarian; > 100 µM in the test on SW-620 colon; 87.6 µM in the test with T-47D breast. For the same compound, the TGI with UO-31 renal was > 100 µM.

As to `Cc1ccc(C(=O)/C(C#N)=C/Nc2c(C)n(C)n(-c3ccccc3)c2=O)cc1`, the TGI in the test on BT-549 breast, in the test on MALME-3M melanoma, with MOLT-4 leukemia, in the test with SK-OV-3 ovarian, with SW-620 colon and with T-47D breast was > 100 µM throughout. In the test with UO-31 renal, the TGI was > 100 µM.

Take `CC(=O)c1cc2c(s1)C(=O)c1ccccc1C2=O`: the TGI was 7.75 µM with BT-549 breast; 2.65 µM in the test on MALME-3M melanoma; 8.67 µM with MOLT-4 leukemia; > 80.3 µM with SK-OV-3 ovarian; 9.67 µM with SW-620 colon; 20.6 µM in the test on T-47D breast. Moreover, the TGI in the test on UO-31 renal was determined as 9.1 µM.

Take `CC(C)(C)OC[C@H](O)CC#N`: the TGI in the test on BT-549 breast, in the test with MALME-3M melanoma, with MOLT-4 leukemia, in the test with SK-OV-3 ovarian, with SW-620 colon and in the test on T-47D breast was > 100 µM each time. The TGI with UO-31 renal was > 100 µM.

In the case of `Cc1cc(=O)oc2cc(O)ccc12`, the TGI in the test on BT-549 breast, in the test with MALME-3M melanoma, in the test on MOLT-4 leukemia, in the test on SK-OV-3 ovarian, with SW-620 colon and in the test on T-47D breast was > 100 µM in each case. Further, the TGI in the test on UO-31 renal was > 100 µM.
